# Test system: MOLM-13 cells
# Assay: Caspase cleavage assay (Caspase3, 7 activation)
# Format: cell-based
# Conditions: Homo sapiens, 16 h treatment, caspase substrate Z-DEVD-R110, read-out: c* Concentration at which 50% of the maximum signal was achieved (caspase activation)
# Procedure: Caspase3, 7 Activation. MOLM-13 cells (30,000 cells/well) were plated in black 96-well plates (Corning Cat. #3603) in 40 μL of RPMI media, and left in an incubator (37° C., 5% CO2) for up to 24 h. Cells were treated for 16 h with compounds or DMSO (control) at desired concentrations in 50 μL of media. Drugs were added in triplicate wells. Following exposure of cells to Hsp70 inhibitors, 50 μL of buffer containing 10 mM HEPES (pH 7.5), 2 mM EDTA, 0.1% CHAPS and the caspase substrate Z-DEVD-R110 at 25 μM was added to each well. Plates were incubated until the signal stabilized and then the fluorescence signal of each well was measured in an Analyst GT microplate reader. The percentage increase in apoptotic cells was calculated by comparison of the fluorescence reading obtained from treated versus control cells.
row,SMILES,EC50 [nM]
1,"CN1CCN(c2ncc(Sc3ccc(C(=O)NCN4CCCCC4)cc3)c(OCc3ccccc3)n2)CC1 [compound 93, 4-((4-(Benzyloxy)-2-(4-methylpiperazin-1-yl)pyrimidin-5-yl)thio)-N-(piperidin-1-ylmethyl)benzamide]",1000 to 1200
2,"COc1ccc(COc2nc(N3CCN(C)CC3)ncc2Sc2ccc(C(N)=O)cc2)cc1 [compound 96, 4-((4-((4-Methoxybenzyl)oxy)-2-(4-methylpiperazin-1-yl)pyrimidin-5-yl)thio)benzamide]",400 to 1000
3,"CN1CCN(c2ncc(Sc3ccc(C(N)=O)cc3)c(NCc3ccccc3)n2)CC1 [compound 102, 4-((4-(Benzylamino)-2-(4-methylpiperazin-1-yl)pyrimidin-5-yl)thio)benzamide]",200 to 400
4,"COc1cc(F)cc(COc2nc(N3CCN(C)CC3)ncc2Sc2ccc(C(N)=O)c(Cl)c2)c1 [compound 110, 2-Chloro-4-((4-((3-fluoro-5-methoxybenzyl)oxy)-2-(4-methylpiperazin-1-yl)pyrimidin-5-yl)thio)benzamide]",200 to 400
5,"CN1CCN(c2ncc(Sc3ccc(C(N)=O)c(Cl)c3)c(OCc3ccc(F)c(Cl)c3)n2)CC1 [compound 113, 2-Chloro-4-((4-((3-chloro-4-fluorobenzyl)oxy)-2-(4-methylpiperazin-1-yl)pyrimidin-5-yl)thio)benzamide]",< 200
6,"CN1CCN(c2ncc(Sc3ccc(C(N)=O)c(Cl)c3)c(OCc3ccc(F)c(Br)c3)n2)CC1 [compound 114, 4-((4-((3-Bromo-4-fluorobenzyl)oxy)-2-(4-methylpiperazin-1-yl)pyrimidin-5-yl)thio)-2-chlorobenzamide]",< 200
7,"CN1CCN(c2ncc(Sc3ccc(C(N)=O)c(Cl)c3)c(OCc3ccc(F)c(C(F)(F)F)c3)n2)CC1 [compound 115, 2-Chloro-4-((4-((4-fluoro-3-(trifluoromethyl)benzyl)oxy)-2-(4-methylpiperazin-1-yl)pyrimidin-5-yl)thio)benzamide]",200 to 400
8,"CN1CCN(c2ncc(Sc3ccc(C(N)=O)c(Cl)c3)c(OCc3cccc(N(C)C)c3)n2)CC1 [compound 116, 2-Chloro-4-((4-((3-(dimethylamino)benzyl)oxy)-2-(4-methylpiperazin-1-yl)pyrimidin-5-yl)thio)benzamide]",< 200
9,"CN1CCN(c2ncc(Sc3ccc(C(N)=O)c(Cl)c3)c(OCc3cccc(N)c3)n2)CC1 [compound 117, 4-((4-((3-Aminobenzyl)oxy)-2-(4-methylpiperazin-1-yl)pyrimidin-5-yl)thio)-2-chlorobenzamide]",200 to 400
10,"CN1CCN(c2ncc(Sc3ccc(C(N)=O)c(Cl)c3)c(OCc3ccc(F)c(N)c3)n2)CC1 [compound 118, 4-((4-((3-Amino-4-fluorobenzyl)oxy)-2-(4-methylpiperazin-1-yl)pyrimidin-5-yl)thio)-2-chlorobenzamide]",400 to 1000

# Other lines, results leading:
row,EC50 [nM],SMILES
1,< 200,"CN1CCN(c2ncc(Sc3ccc(C(N)=O)cc3)c(OCc3cccc(N=[N+]=[N-])c3)n2)CC1 [compound 101, 4-((4-((3-Azidobenzyl)oxy)-2-(4-methylpiperazin-1-yl)pyrimidin-5-yl)thio)benzamide]"
2,< 200,"COc1cccc(COc2nc(N3CCN(C)CC3)ncc2Sc2ccc(C(N)=O)c(Cl)c2)c1 [compound 108, 2-Chloro-4-((4-((3-methoxybenzyl)oxy)-2-(4-methylpiperazin-1-yl)pyrimidin-5-yl)thio)benzamide]"
3,< 200,COc1ccc(F)c(COc2nc(N3CCN(C)CC3)ncc2Sc2ccc(C(N)=O)c(Cl)c2)c1 [compound 109]
4,< 200,"COc1cc(COc2nc(N3CCN(C)CC3)ncc2Sc2ccc(C(N)=O)c(Cl)c2)ccc1F [compound 111, 2-Chloro-4-((4-((4-fluoro-3-methoxybenzyl)oxy)-2-(4-methylpiperazin-1-yl)pyrimidin-5-yl)thio)benzamide]"
5,< 200,"COc1c(F)ccc(COc2nc(N3CCN(C)CC3)ncc2Sc2ccc(C(N)=O)c(Cl)c2)c1F [compound 112, 2-Chloro-4-((4-((2,4-difluoro-3-methoxybenzyl)oxy)-2-(4-methylpiperazin-1-yl)pyrimidin-5-yl)thio)benzamide]"

# From patent US10160729B2, “Hsp70 modulators and methods for making and using the same” (Memorial Sloan Kettering Cancer Center, priority 2014, dated 2018)
